Experimental data as given in patent US7414138B2, “Benzoxazole and benzodiazole UV-A sunscreens” (DSM IP Assets B.V., priority 2002, dated 2008).

Tests used:
[1] = Solubility measurement in cosmetic solvents (saturated solution, UV spectroscopy); conditions: for solubility in Crodamol DA: Crodamol DA (diisopropyl adipate); for solubility in Crodamol DA / solubility in Cétiol LC: room temperature, 18 hours; for solubility in Cétiol LC: Cétiol LC (cocoyl caprylate caprate)
Protocol: An excess of the UV sunscreen was placed in a flask, containing Cétiol LC (cocoyl caprylate caprate) and Crodamol DA (diisopropyl adipate), respectively. The suspension was mixed and treated in an ultrasound bath for 10 minutes. After standing at room temperature for 18 hours, the solution over the remaining crystals was filtered through a millipore microfilter (pore size of 0.45 μm). The concentration of this saturated solution was determined by means of UV spectroscopy in comparison with a calibration curve.

[2] = Photostability, irradiation in high dilution with 150 W Hg-lamp (on-line Hg-lamp/HPLC); assay type: physicochemical; conditions: for photostability (in words): irradiated in high dilution with a Hg-lamp 150 W from Heraeus
Protocol: The photostability is measured in an on-line system Hg-lamp/HPLC, using a 150 W Hg-lamp of Heraeus with Pyrex filter (2.3 mm) and a Teflon capillary tube with 0.3 mm inside diameter and a total length of 10 m. 3.6. mg of the sample is dissolved in 16 ml of MeOH and 10 μl of this solution injected. The degradation products are not separated. UV-absorption at a wavelength of 358 nm of the irradiated solution is measured periodically up to 14 minutes and the result is compared with the corresponding photostability of butyl methoxy dibenzoylmethane. The product was detected in >90%, indicating photostability, whereas only 16% of butyl methoxy dibenzoylmethane could be detected after 14 minutes of irradiation.
Alternatively, the measurement is performed according to the protocol described in the International Journal of Cosmetic Science 18, 167-177 (1996).

SMILES | melting point | solubility in Crodamol DA [1] | solubility in Cétiol LC [1] | product detected after irradiation ([2]; MeOH solution, 150 W Hg-lamp with Pyrex filter, UV-absorption at 358 nm, after 14 minutes of irradiation) | solubility in Cétiol LC (in words) ([1]; Cétiol LC) | photostability (in words) [2] | solubility in Crodamol DA (in words) ([1]; Crodamol DA)
CCOC(=O)C(=Cc1ccc(-c2nc3ccccc3o2)cc1)C(=O)OCC [Example 1, 2-(4-Benzoxazol-2-yl-benzylidene)-malonic acid diethyl ester] | 99 to 102 °C | 11% | 4.5% | > 90% | – | – | –
CCCCOC(=O)C(=Cc1ccc(-c2nc3ccccc3o2)cc1)C(=O)OCCCC [Example 3, 2-(4-Benzoxazol-2-yl-benzylidene)-malonic acid dibutyl ester] | – | – | – | – | miscible | photostable | –
CCCCC(CC)COC(=O)/C(C#N)=C/c1ccc(-c2nc3ccccc3o2)cc1 (stereo not shown) [Example 4, 2-Cyano-3-{4-benzoxazol-2-yl-phenyl}-acrylic acid 2-ethylhexyl ester] | 84 to 85 °C | 2.8% | 1.6% | – | – | photostable after E/Z isomerisation | –
CCCCC(CC)COC(=O)/C(C#N)=C/c1ccc(-c2nc3cc(C(C)(C)C)ccc3o2)cc1 (stereo not shown) [Example 2, 2-Cyano-3-{4-[5-tert.-butyl-benzoxazol-2-yl]-phenyl}-acrylic acid 2-ethylhexyl ester] | 80 to 81 °C | 7.4% | 3.8% | – | – | photostable | –
CCOCCOCCOc1ccc2nc(-c3ccc(C=C(C(=O)OCC)C(=O)OCC)cc3)oc2c1 [Example 8] | 43 to 45 °C | – | 4.6% | – | – | photostable | –
C=C(COc1ccc2nc(-c3ccc(C=C(C(=O)OCC)C(=O)OCC)cc3)oc2c1)[Si](C)(O[Si](C)(C)C)O[Si](C)(C)C [Example 9] | – | – | – | – | – | excellent photostability | unlimited solubility
CCOC(=O)C(=Cc1ccc(-c2nc3ccc(O)cc3o2)cc1)C(=O)OCC [Example 6, 2-(4-[6-Hydroxy-benzoxazol-2-yl]-benzylidene)-malonic acid diethyl ester] | 153 to 155 °C | 1.6% | – | – | – | photostable | –
CCCCC(CC)COc1ccc2nc(-c3ccc(C=C(C(=O)OCC)C(=O)OCC)cc3)oc2c1 (stereo not shown) [Example 7] | 50 to 52 °C | – | 10.2% | – | – | photostable | –
